Reference: patent US7459470B2, “N-oxide anthranylamide derivatives and their use as medicaments” (Schering AG, priority 2001, dated 2008)

What was measured:
CYP3A4 = target: T1, CYP3A4 (Homo sapiens, UniProt P08684); test: Cytochrome P450 inhibition, isoenzyme 3A4; assay type: in vitro ADME; conditions: baculovirus/insect cell-expressed recombinant human CYP3A4, read-out: Inhibition of the Cytochrome P450 Isoenzymes IC50, 3A4
T1 construct: host or cells: baculovirus/insect cells
Experimental: (§1) The Cytochrome P450 inhibition was performed according to the publication of Crespi et al. (Anal Biochem., 248, 188-190 (1997)) with use of baculovirus/insect cell-expressed, human Cytochrome P 450 isoenzymes (1A2, 2C9, 2C19, 2D6, 3A4).

CYP2C19 = target: T2, CYP2C19 (Homo sapiens, UniProt P33261); test: Cytochrome P450 inhibition, isoenzyme 2C19; assay type: in vitro ADME; conditions: baculovirus/insect cell-expressed recombinant human CYP2C19, read-out: Inhibition of the Cytochrome P450 Isoenzymes IC50, 2C19
T2 construct: host or cells: baculovirus/insect cells
Experimental: as §1

VEGFR II (KDR) = VEGFR II (KDR) (Homo sapiens, UniProt P35968); test: Inhibition of the KDR kinase activity (33P-ATP, poly-(Glu4Tyr) filter assay); assay type: biochemical; conditions: phosphate incorporation into poly-(Glu4Tyr), 10 minutes at room temperature
Experimental: • Stock Solutions • Stock solution A: 3 mmol of ATP in water, pH 7.0 (−70° C.) • Stock solution B: g-33P-ATP 1 mCi/100 μl • Stock solution C: poly-(Glu4 Tyr). 10 mg/ml in water Solution for Dilutions • Substrate solvent: 10 mmol of DTT, 10 mmol of manganese chloride, 100 mmol of magnesium chloride • Enzyme solution: 120 mmol of tris/HCl, pH 7.5, 10 μM of sodium vanadium oxide Sample Application 1 Inhibition of the KDR- and FLT-1 Kinase Activity in the Presence of the Compounds According to the Invention
In a microtiter plate (without protein binding) that tapers to a point, 10 μl of substrate mix (10 μl of volume of ATP stock solution A+25 μCi of g-33P-ATP (about 2.5 μl of stock solution B)+30 μl of poly-(Glu4Tyr) stock solution C+1.21 ml of substrate solvent), 10 μl of inhibitor solution (substances corresponding to the dilutions, 3% DMSO in substrate solvent as a control) and 10 μl of enzyme solution (11.25 μg of enzyme stock solution (KDR or FLT-1 kinase) are added at 4° C. in 1.25 ml of enzyme solution (dilute). It is thoroughly mixed and incubated for 10 minutes at room temperature. Then, 10 μl of stop solution (250 mmol of EDTA, pH 7.0) is added, mixed, and 10 μl of the solution is transferred to a P 81 phosphocellulose filter. Then, it is washed several times in 0.1 M phosphoric acid. The filter paper is dried, coated with Meltilex and measured in a microbeta counter.
The IC50 values are determined from the inhibitor concentration, which is necessary to inhibit the phosphate incorporation to 50% of the uninhibited incorporation after removal of the blank reading (EDTA-stopped reaction).

CYP2D6 = target: T3, CYP2D6 (Homo sapiens, UniProt P10635); test: Cytochrome P450 inhibition, isoenzyme 2D6; assay type: in vitro ADME; conditions: baculovirus/insect cell-expressed recombinant human CYP2D6, read-out: Inhibition of the Cytochrome P450 Isoenzymes IC50, 2D6
T3 construct: host or cells: baculovirus/insect cells
Experimental: as §1

CYP1A2 = target: T4, CYP1A2 (Homo sapiens, UniProt P05177); test: Cytochrome P450 inhibition, isoenzyme 1A2; assay type: in vitro ADME; conditions: baculovirus/insect cell-expressed recombinant human CYP1A2, read-out: Inhibition of the Cytochrome P450 Isoenzymes IC50, 1A2
T4 construct: host or cells: baculovirus/insect cells
T4 sequence (P05177 1-516): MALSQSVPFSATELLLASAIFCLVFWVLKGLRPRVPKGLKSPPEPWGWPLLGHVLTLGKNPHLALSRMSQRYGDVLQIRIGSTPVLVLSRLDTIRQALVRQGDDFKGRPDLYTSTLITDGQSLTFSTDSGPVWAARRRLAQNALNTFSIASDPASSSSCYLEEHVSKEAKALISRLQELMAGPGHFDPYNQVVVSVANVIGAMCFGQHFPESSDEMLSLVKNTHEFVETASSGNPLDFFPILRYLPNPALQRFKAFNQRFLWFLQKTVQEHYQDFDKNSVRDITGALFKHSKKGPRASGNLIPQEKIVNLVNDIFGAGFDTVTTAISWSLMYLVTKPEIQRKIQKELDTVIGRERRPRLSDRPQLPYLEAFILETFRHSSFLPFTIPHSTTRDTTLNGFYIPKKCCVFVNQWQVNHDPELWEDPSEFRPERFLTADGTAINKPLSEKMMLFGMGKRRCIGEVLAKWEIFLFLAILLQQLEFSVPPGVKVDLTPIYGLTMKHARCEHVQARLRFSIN
Experimental: as §1

CYP2C9 = target: T5, CYP2C9 (Homo sapiens, UniProt P11712); test: Cytochrome P450 inhibition, isoenzyme 2C9; assay type: in vitro ADME; conditions: baculovirus/insect cell-expressed recombinant human CYP2C9, read-out: Inhibition of the Cytochrome P450 Isoenzymes IC50, 2C9
T5 construct: host or cells: baculovirus/insect cells
Experimental: as §1

Chain of VEGFR II (KDR) (P35968 20-1356, species assumed): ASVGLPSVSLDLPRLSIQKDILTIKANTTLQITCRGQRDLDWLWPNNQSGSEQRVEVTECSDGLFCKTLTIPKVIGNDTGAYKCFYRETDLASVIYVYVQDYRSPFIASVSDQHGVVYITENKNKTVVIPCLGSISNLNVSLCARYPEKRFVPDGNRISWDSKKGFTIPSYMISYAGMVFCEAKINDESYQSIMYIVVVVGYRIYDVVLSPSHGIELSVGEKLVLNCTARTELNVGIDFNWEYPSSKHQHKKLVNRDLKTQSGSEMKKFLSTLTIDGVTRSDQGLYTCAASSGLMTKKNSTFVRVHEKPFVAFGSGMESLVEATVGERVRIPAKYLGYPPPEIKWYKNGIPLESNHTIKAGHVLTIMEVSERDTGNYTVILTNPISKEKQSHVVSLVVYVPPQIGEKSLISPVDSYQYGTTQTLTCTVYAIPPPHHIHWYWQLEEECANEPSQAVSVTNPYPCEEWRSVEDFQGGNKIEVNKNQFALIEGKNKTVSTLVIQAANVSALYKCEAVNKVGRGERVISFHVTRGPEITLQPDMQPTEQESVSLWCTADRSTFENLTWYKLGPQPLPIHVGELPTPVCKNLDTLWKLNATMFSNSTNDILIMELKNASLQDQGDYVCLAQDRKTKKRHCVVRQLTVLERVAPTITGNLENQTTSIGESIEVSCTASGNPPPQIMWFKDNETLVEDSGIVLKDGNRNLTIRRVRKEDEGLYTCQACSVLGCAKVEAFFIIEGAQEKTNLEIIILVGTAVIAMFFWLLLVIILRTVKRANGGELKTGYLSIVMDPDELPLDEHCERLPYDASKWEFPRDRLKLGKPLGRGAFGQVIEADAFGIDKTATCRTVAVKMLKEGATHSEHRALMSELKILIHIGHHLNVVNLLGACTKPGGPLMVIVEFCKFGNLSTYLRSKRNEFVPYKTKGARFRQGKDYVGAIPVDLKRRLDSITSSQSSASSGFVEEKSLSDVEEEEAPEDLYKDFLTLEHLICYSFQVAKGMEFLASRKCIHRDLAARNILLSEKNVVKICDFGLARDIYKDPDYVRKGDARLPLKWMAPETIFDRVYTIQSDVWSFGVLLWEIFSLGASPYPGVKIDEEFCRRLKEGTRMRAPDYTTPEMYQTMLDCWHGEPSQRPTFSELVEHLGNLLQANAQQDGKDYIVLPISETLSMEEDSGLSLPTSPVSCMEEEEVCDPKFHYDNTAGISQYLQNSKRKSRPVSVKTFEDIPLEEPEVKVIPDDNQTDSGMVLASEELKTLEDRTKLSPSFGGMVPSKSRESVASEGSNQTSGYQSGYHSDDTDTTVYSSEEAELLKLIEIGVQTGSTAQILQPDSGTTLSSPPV
T5 sequence (P11712 whole entry): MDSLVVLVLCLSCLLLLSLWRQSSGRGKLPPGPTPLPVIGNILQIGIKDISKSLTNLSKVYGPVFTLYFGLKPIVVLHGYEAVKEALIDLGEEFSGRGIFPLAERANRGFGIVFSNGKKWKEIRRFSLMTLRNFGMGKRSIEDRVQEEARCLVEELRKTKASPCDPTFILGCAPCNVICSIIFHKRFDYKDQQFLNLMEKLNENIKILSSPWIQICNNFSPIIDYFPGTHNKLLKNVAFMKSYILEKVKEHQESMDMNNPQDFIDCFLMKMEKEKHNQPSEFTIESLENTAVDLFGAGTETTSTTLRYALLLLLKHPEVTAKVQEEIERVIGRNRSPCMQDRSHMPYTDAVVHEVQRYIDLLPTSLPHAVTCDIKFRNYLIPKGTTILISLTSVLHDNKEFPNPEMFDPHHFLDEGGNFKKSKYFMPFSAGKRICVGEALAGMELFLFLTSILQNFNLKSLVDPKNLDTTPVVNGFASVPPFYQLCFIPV
T3 sequence (P10635 whole entry): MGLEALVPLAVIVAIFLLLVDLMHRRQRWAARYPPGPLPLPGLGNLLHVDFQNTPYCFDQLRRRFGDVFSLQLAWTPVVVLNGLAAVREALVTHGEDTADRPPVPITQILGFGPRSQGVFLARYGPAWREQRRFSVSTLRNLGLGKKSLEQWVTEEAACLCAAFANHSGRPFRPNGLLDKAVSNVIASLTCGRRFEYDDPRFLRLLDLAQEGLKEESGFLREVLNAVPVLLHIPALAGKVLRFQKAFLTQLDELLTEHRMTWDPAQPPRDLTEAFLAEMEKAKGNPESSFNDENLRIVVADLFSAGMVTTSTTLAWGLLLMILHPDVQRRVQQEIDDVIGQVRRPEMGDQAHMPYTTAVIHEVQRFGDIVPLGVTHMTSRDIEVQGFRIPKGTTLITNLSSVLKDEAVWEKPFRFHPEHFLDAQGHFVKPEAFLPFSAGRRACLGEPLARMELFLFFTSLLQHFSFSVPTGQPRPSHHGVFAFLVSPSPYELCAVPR
T2 sequence (P33261 whole entry): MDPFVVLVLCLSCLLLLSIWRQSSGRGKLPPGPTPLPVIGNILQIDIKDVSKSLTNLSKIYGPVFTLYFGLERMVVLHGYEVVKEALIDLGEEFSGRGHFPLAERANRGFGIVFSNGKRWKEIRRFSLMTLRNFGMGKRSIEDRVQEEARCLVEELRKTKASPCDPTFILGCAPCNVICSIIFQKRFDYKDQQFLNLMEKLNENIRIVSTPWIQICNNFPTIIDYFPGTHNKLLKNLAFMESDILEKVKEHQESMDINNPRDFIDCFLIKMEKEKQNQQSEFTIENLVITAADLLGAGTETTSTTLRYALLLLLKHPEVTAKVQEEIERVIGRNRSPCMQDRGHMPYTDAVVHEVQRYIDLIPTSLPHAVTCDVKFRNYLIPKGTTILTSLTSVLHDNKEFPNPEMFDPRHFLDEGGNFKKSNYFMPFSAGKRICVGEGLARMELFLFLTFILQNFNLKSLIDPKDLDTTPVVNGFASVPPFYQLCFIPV
T1 sequence (P08684 whole entry): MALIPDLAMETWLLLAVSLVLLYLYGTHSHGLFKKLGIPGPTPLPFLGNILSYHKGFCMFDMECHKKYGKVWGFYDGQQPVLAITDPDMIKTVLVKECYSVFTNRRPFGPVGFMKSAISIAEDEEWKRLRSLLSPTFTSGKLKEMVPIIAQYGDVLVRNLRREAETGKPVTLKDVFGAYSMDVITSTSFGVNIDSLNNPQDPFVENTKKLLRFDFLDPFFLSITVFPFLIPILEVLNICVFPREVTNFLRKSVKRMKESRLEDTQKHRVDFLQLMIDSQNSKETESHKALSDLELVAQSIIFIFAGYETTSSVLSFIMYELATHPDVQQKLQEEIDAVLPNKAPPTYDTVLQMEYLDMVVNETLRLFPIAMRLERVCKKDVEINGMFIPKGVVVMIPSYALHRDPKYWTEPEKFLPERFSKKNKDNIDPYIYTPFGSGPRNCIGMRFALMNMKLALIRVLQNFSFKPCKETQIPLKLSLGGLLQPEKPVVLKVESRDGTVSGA

Compound	IC50 (CYP3A4)	IC50 (CYP2C19)	IC50 (VEGFR II (KDR))	IC50 (CYP2D6)	IC50 (CYP1A2)	IC50 (CYP2C9)	melting point
O=C(Nc1cc2ccccc2cn1)c1ccccc1NCc1cc[n+]([O-])cc1 [Example 1, N-(Isoquinolin-3-yl)-2-(4-pyridylmethyl)aminobenzoic acid amide-N-oxide]	> 30000 nM	3600 nM	30 nM	> 30000 nM	> 30000 nM	5200 nM	
O=C(Nc1cc2ccccc2cn1)c1ccccc1NCc1ccc[n+]([O-])c1 [Example 2]			200 nM				191.9 °C
O=C(Nc1cc2ccccc2cn1)c1cccnc1NCc1cc[n+]([O-])cc1 [Example 7]			50 nM				196.2 °C
O=C(Nc1cccc(C(F)(F)F)c1)c1cccnc1NCc1cc[n+]([O-])cc1 [Example 8]			50 nM				
O=C(Nc1cccc(C(F)(F)F)c1)c1ccccc1NCc1cc[n+]([O-])cc1 [Example 4]			50 nM				181 to 184 °C
